Consider 39 molecules from patent publication US10238633B2, “Methods for treating pulmonary emphysema using substituted 2-Aza-bicyclo[2.2.1]heptane-3-carboxylic acid (benzyl-cyano-methyl)-amides inhibitors of Cathepsin C” (Boehringer Ingelheim International GmbH, priority 2013, dated 2019).

The subject of this experiment is Neutrophil elastase activity in U937 cells. The experiment can be described thus: Determination of neutrophil elastase activity in U937 cytosolic lysate preparation after incubation with test compound. Type of experiment: cell-based. The following applies: Homo sapiens, U-937, read-out: Reduction of NE-activity in U937 cells IC50. The protocol: Determination of Neutrophil Elastase Activity in U937 Cytosolic Lysate Preparation after Incubation with Test Compound
Optiplate 384F were purchased from PerkinElmer (Prod. No. #6007270). 24 well Nunclon cell culture plates (No. 142475) and 96 well plates (No. 267245) were from Nunc. Dimethylsulfoxid (DMSO) was from Sigma (Prod. No. D8418). Nonidet-P40 (NP40) was from USBiological (Prod. No. N3500)
Substrate, specific for Neutrophil elastase, was from Bachem (MeOSuc-Ala-Ala-Pro-Val-AMC; Prod. No. 1-1270).
Human neutrophil elastase was from Calbiochem (Prod. No. 324681)
Tris-buffer (100 mM Tris; 1M NaCL; pH 7.5)
Tris-buffer+HSA 0.1%; Human Serum Albumin from Calbiochem (Cat#. 126658)
Serine-protease buffer (20 mM Tris; 100 mM NaCL; pH 7.5)+0.1% HSA
Serine protease lysis buffer: 20 mM Tris-HCL; 100 mM NaCl pH 7.5; +0.2% Nonidet-P40;
PBS: phosphate buffered saline, without Ca and Mg, from Gibco
U937 from ECACC (Cat. No. 85011440) cultured in suspension at 37° C. and 5% CO2.
Cell density: 0.2-1 Mio. Cells/ml.
Medium: RPMI1640 GlutaMAX (No. 61870) with 10% FCS from Gibco
Cell Seeding and Treatment:
Compounds in 100% DMSO were diluted in Medium (—FCS) with 10% DMSO and further diluted according to the experiment planned.
20 μl of the compound solution was transferred in the respective wells of the 24 well plate and diluted with 2 ml cell suspension/well containing […] (final concentration of DMSO=0.1%). Compound dilution factor=100
Compounds (up to 7 concentrations) were tested in triplicates with 3 wells for the DMSO 0.1% control, incubated for 48 hours without medium change at 37° C., 5% CO2 and 95% relative humidity.
Cell Harvesting and Cell Lysate:
Transfer the cell suspension in 2.2 ml Eppendorf cups. Separate cells from medium by centrifugation (400×g; 5 min; RT); discard the supernatant. Resuspend in 1 ml PBS; centrifugation (400×g; 5 min; RT); wash cells twice with PBS. Add 100 μl Serin lysis buffer (ice cold) to the cell pellet; resuspend the pellet and store on ice for 15 minutes. Remove debris by centrifugation at 15000×g for 10 min at 4° C. Transfer 80-100 μl lysate supernatant in 96 well plate and store immediately at −80° C.
Neutrophil Elastase Activity Assay:
Frozen lysates were thawn at 37° C. for 10 minutes and stored on ice. Protein content was determined with Bradford protein assay. Lysates were diluted to 0.2-0.5 mg/ml protein in serine protease buffer+HSA.
Standard: NE (100 μg/ml stock solution in Tris-buffer; stored at −80° C.) was diluted in Tris-buffer+HSA to 750 ng/ml, and further serially diluted 1:2 for the standard curve.
Buffer, blank, standard and lysate samples were transferred into 384 well plate
Blank: 5 μl Tris-buffer+10 μl Tris-buffer+HSA+5 μl Substrate
Standard: 5 μl Tris-buffer+10 μl NE (diff. conc.)+5 μl Substrate
Lysate: 5 μl Tris-buffer+10 μl Lysat+[…] Substrate
The increase in fluorescence (Ex360 nm/Em 460 nm) is determined over 30 minutes with a Molecular Device Spectramax M5 Fluorescence Reader. Kinetic Reduction (Vmax units/sec); 4 vmax points. The amount of neutrophil elastase (ng/ml) is calculated using the standard curve and the Spectramax software. The result is interpolated to ng/mg lysate protein using excel formula functions. […] IC50 is calculated using Graphpad Prism; nonlinear fitting (log(inhibitor) vs. response—Variable slope).
Usually IC50 stands for the midpoint of a concentration-inhibition curve. For `CN1Cc2ccc(-c3ccc(C[C@@H](C#N)NC(=O)[C@H]4N[C@@H]5CC[C@H]4C5)c(F)c3)cc2C1` [Example 1, (1S,2S,4R)—N-[(1S)-1-cyano-2-[2-fluoro-4-(2-methylisoindolin-5-yl)phenyl]ethyl]-3-azabicyclo[2.2.1]heptane-2-carboxamide], the IC50 is 2.3 nM.
To `CN1C(=O)Cc2ccc(-c3ccc(C[C@@H](C#N)NC(=O)[C@H]4N[C@@H]5CC[C@H]4C5)c(F)c3)cc21` [Example 2, (1S,2S,4R)—N-[(1S)-1-cyano-2-[2-fluoro-4-(1-methyl-2-oxo-indolin-6-yl)phenyl]ethyl]-3-azabicyclo[2.2.1]heptane-2-carboxamide] belongs 6.2 nM; to `N#C[C@H](Cc1ccc(-c2ccc3c(c2)COC3=O)cc1F)NC(=O)[C@H]1N[C@@H]2CC[C@H]1C2` [Example 3, (1S,2S,4R)—N-[(1S)-1-cyano-2-[2-fluoro-4-(1-oxo-3H-isobenzofuran-5-yl)phenyl]ethyl]-3-azabicyclo[2.2.1]heptane-2-carboxamide], 2.9 nM.
To `CS(=O)(=O)c1cccc(-c2ccc(C[C@@H](C#N)NC(=O)[C@H]3N[C@@H]4CC[C@H]3C4)c(F)c2)c1` [Example 4, (1S,2S,4R)—N-[(1S)-1-cyano-2-[2-fluoro-4-(3-methylsulfonylphenyl)phenyl]ethyl]-3-azabicyclo[2.2.1]heptane-2-carboxamide] belongs 6.4 nM.
To `CN1CCN(c2ccc(C[C@@H](C#N)NC(=O)[C@H]3N[C@@H]4CC[C@H]3C4)c(F)c2)CC1` [Example 6, (1S,2S,4R)—N-[(1S)-1-cyano-2-[2-fluoro-4-(4-methylpiperazin-1-yl)phenyl]ethyl]-3-azabicyclo[2.2.1]heptane-2-carboxamide] belongs 2.4 nM.
With `N#CC(Cc1ccc(-c2ccc3c(c2)COC3=O)cc1F)NC(=O)[C@H]1N[C@@H]2CC[C@H]1C2` (stereo partly drawn) [Example 11], the IC50 is 8.7 nM.
With `CS(=O)(=O)c1ccc(-c2ccc(C[C@@H](C#N)NC(=O)[C@H]3N[C@@H]4CC[C@H]3C4)c(F)c2)cc1` [Example 16], the IC50 came to 14.5 nM.
To `N#C[C@H](Cc1ccc(-c2ccc3c(c2)NC(=O)C3)cc1F)NC(=O)[C@H]1N[C@@H]2CC[C@H]1C2` [Example 29] belongs 8.8 nM.
`CN1CCc2cc(-c3ccc(C[C@@H](C#N)NC(=O)[C@H]4N[C@@H]5CC[C@H]4C5)c(F)c3)ccc2C1=O` [Example 42]: the IC50 worked out at 8.3 nM.
To `N#C[C@H](Cc1ccc(N2CCN3CCOCC3C2)cc1F)NC(=O)[C@H]1N[C@@H]2CC[C@H]1C2` (stereo partly drawn) [Example 43] belongs 9.2 nM; to `N#C[C@H](Cc1ccc(N2CCN(CC3CCCO3)CC2)cc1F)NC(=O)[C@H]1N[C@@H]2CC[C@H]1C2` (stereo partly drawn) [Example 154], 4.6 nM.
Next, `CN1CCN(S(=O)(=O)c2ccc(-c3ccc(C[C@@H](C#N)NC(=O)[C@H]4N[C@@H]5CC[C@H]4C5)c(F)c3)cc2)CC1` [Example 155]: 0.5 nM; `CC1(C)OC(=O)c2ccc(-c3ccc(C[C@@H](C#N)NC(=O)[C@H]4N[C@@H]5CC[C@H]4C5)c(F)c3)cc21` [Example 156]: 2.3 nM; `COCCN1C(=O)Cc2ccc(-c3ccc(C[C@@H](C#N)NC(=O)[C@H]4N[C@@H]5CC[C@H]4C5)c(F)c3)cc21` [Example 158]: 8.8 nM.
To `CN1Cc2cc(-c3ccc(C[C@@H](C#N)NC(=O)[C@H]4N[C@@H]5CC[C@H]4C5)c(F)c3)ccc2S1(=O)=O` [Example 169] belongs 9.1 nM; to `N#C[C@H](Cc1ccc(-c2ccc(S(=O)(=O)N3CCCCC3)cc2)cc1F)NC(=O)[C@H]1N[C@@H]2CC[C@H]1C2` [Example 177], 9.2 nM.
With `COCCN1CCN(c2ccc(C[C@@H](C#N)NC(=O)[C@H]3N[C@@H]4CC[C@H]3C4)c(F)c2)CC1C` (stereo partly drawn) [Example 178], the IC50 was 3.6 nM.
Next, `COCCN1CCN(c2ccc(C[C@@H](C#N)NC(=O)[C@H]3N[C@@H]4CC[C@H]3C4)c(F)c2)CC1` [Example 182]: 8.1 nM; `CN1CCN(C(=O)c2ccc(-c3ccc(C[C@@H](C#N)NC(=O)[C@H]4N[C@@H]5CC[C@H]4C5)c(F)c3)cc2)CC1` [Example 185]: 3.9 nM; `N#C[C@H](Cc1ccc(N2CCN(C3CC3)CC2)cc1F)NC(=O)[C@H]1N[C@@H]2CC[C@H]1C2` [Example 187]: 7.3 nM.
To `C[C@H]1CN(C)CCN1c1ccc(C[C@@H](C#N)NC(=O)[C@H]2N[C@@H]3CC[C@H]2C3)c(F)c1` [Example 188] belongs 4.4 nM.
As to `COCCN1C(C)CN(c2ccc(C[C@@H](C#N)NC(=O)[C@H]3N[C@@H]4CC[C@H]3C4)c(F)c2)CC1C` (stereo partly drawn) [Example 191], the concentration for half-maximal inhibition (IC50) is 3.3 nM.
`CC1CN(C)CCN1c1ccc(C[C@@H](C#N)NC(=O)[C@H]2N[C@@H]3CC[C@H]2C3)c(F)c1` (stereo partly drawn) [Example 192]: the IC50 came out at 4.1 nM.
To `N#C[C@H](Cc1ccc(N2CCC(N3CCOCC3)CC2)cc1F)NC(=O)[C@H]1N[C@@H]2CC[C@H]1C2` [Example 193] belongs 6.5 nM; to `CC1CN(c2ccc(C[C@@H](C#N)NC(=O)[C@H]3N[C@@H]4CC[C@H]3C4)c(F)c2)C(C)CN1C` (stereo partly drawn) [Example 196], 5.3 nM.
To `N#C[C@H](Cc1ccc(-c2ccc(S(=O)(=O)N3CCOCC3)cc2)cc1F)NC(=O)[C@H]1N[C@@H]2CC[C@H]1C2` [Example 217] belongs 7.5 nM; to `CN1CC=C(c2ccc(C[C@@H](C#N)NC(=O)[C@H]3N[C@@H]4CC[C@H]3C4)c(F)c2)CC1` [Example 223], 3 nM; to `CN1CCN(S(=O)(=O)c2cccc(-c3ccc(C[C@@H](C#N)NC(=O)[C@H]4N[C@@H]5CC[C@H]4C5)c(F)c3)c2)CC1` [Example 224], 1 nM.
On to `CN1CCN(C(=O)c2cc(-c3ccc(C[C@@H](C#N)NC(=O)[C@H]4N[C@@H]5CC[C@H]4C5)c(F)c3)cs2)CC1` [Example 225], for which the half-inhibitory concentration (IC50) was found to be 2.8 nM.
On to `N#C[C@H](Cc1ccc(-c2csc(C(=O)N3CCn4nccc4C3)c2)cc1F)NC(=O)[C@H]1N[C@@H]2CC[C@H]1C2` [Example 226], for which the IC50 is 1.8 nM.
Next, `CC(C)N1CCN(C(=O)c2cc(-c3ccc(C[C@@H](C#N)NC(=O)[C@H]4N[C@@H]5CC[C@H]4C5)c(F)c3)cs2)CC1` [Example 227]: 0.9 nM; `COCCN1CCN(C(=O)c2cc(-c3ccc(C[C@@H](C#N)NC(=O)[C@H]4N[C@@H]5CC[C@H]4C5)c(F)c3)cs2)CC1` [Example 228]: 4.6 nM.
To `N#C[C@H](Cc1ccc(-c2csc(C(=O)N3CCN(C4CC4)CC3)c2)cc1F)NC(=O)[C@H]1N[C@@H]2CC[C@H]1C2` [Example 229] belongs 2.9 nM; to `N#C[C@H](Cc1ccc(-c2csc(C(=O)N3CCN(CC(F)(F)F)CC3)c2)cc1F)NC(=O)[C@H]1N[C@@H]2CC[C@H]1C2` [Example 232], 5.2 nM.
Next, `N#C[C@H](Cc1ccc(-c2csc(C(=O)N3CCN4CCOCC4C3)c2)cc1F)NC(=O)[C@H]1N[C@@H]2CC[C@H]1C2` (stereo partly drawn) [Example 234]: 6.9 nM.
Consider `N#C[C@H](Cc1ccc(-c2ccc(C(=O)N3CCn4nccc4C3)s2)cc1F)NC(=O)[C@H]1N[C@@H]2CC[C@H]1C2` [Example 237], for which the IC50 was 9.6 nM.
Next, `CN1CCN(C(=O)c2coc(-c3ccc(C[C@@H](C#N)NC(=O)[C@H]4N[C@@H]5CC[C@H]4C5)c(F)c3)c2)CC1` [Example 241]: 5.3 nM; `CN1CCN(C(=O)c2cccc(-c3ccc(C[C@@H](C#N)NC(=O)[C@H]4N[C@@H]5CC[C@H]4C5)c(F)c3)c2)CC1` [Example 245]: 3.8 nM.
To `CN1CCCN(c2ccc(C[C@@H](C#N)NC(=O)[C@H]3N[C@@H]4CC[C@H]3C4)c(F)c2)CC1` [Example 247] belongs 8 nM.
